Laboratory results published in patent publication US20250333424A1, “ANTIVIRAL COMPOUNDS” (Gilead Sciences, Inc., priority 2024, published 2025).

The compounds below were run on monocytic THP1 cells infected with HIV VSV-G pseudotyped GFP-NEF reporter virus (assay: cells). Details: Human immunodeficiency virus 1, THP-1, 24 h.
Format: cell-based

| Structure (SMILES) | EC50 [nM] |
| --- | --- |
| Cc1cc(/C=C/C#N)cc(C)c1Oc1nc(NC23CC(C#N)(C2)C3)nc2nc(-c3ccn(C)n3)[nH]c12 [Compound 65, (E)-3-((6-(4-(2-cyanovinyl)-2,6-dimethylphenoxy)-8-(1-methyl-1H-pyrazol-3-yl)-7H-purin-2-yl)amino)bicyclo[1.1.1]pentane-1-carbonitrile] | 132 |
| Cc1cc(/C=C/C#N)cc(C)c1Oc1nc(NC23CC(C#N)(C2)C3)nc2c1C(C)(O)N(CC(F)F)C2=O (stereo not drawn) [Example 238, (E)-3-((4-(4-(2-cyanovinyl)-2,6-dimethylphenoxy)-6-(2,2-difluoroethyl)-5-hydroxy-5-methyl-7-oxo-6,7-dihydro-5H-pyrrolo[3,4-d]pyrimidin-2-yl)amino)bicyclo[1.1.1]pentane-1-carbonitrile] | 92.4 |
| Cc1cc(/C=C/C#N)cc(C)c1Oc1nc(NC23CC(C#N)(C2)C3)nc2c1C(C)N(CC#N)C2=O (stereo not drawn) [Compound 315, (E)-3-((6-(cyanomethyl)-4-(4-(2-cyanovinyl)-2,6-dimethylphenoxy)-5-methyl-7-oxo-6,7-dihydro-5H-pyrrolo[3,4-d]pyrimidin-2-yl)amino)bicyclo[1.1.1]pentane-1-carbonitrile] | 188 |
| COc1ccc(CN2C(=O)C(C)(C)c3c(Oc4c(C)cc(/C=C/C#N)cc4C)nc(NC45CC(C#N)(C4)C5)nc32)cc1 [Compound 146, (E)-3-((4-(4-(2-cyanovinyl)-2,6-dimethylphenoxy)-7-(4-methoxybenzyl)-5,5-dimethyl-6-oxo-6,7-dihydro-5H-pyrrolo[2,3-d]pyrimidin-2-yl)amino)bicyclo[1.1.1]pentane-1-carbonitrile] | 35.4 |
| Cc1cc(/C=C/C#N)cc(C)c1Oc1nc(NC23CC(C#N)(C2)C3)nc2c1C(C)N(C(C)C)C2=O (stereo not drawn) [Example 206, (E)-3-((4-(4-(2-cyanovinyl)-2,6-dimethylphenoxy)-6-isopropyl-5-methyl-7-oxo-6,7-dihydro-5H-pyrrolo[3,4-d]pyrimidin-2-yl)amino)bicyclo[1.1.1]pentane-1-carbonitrile] | 280 |
| Cc1cc(/C=C/C#N)cc(C)c1Oc1nc(NC23CC(C#N)(C2)C3)nc2c1c(Cl)nn2C (single isomer, unassigned) [Compound 96, (E)-3-((3-chloro-4-(4-(2-cyanovinyl)-2,6-dimethylphenoxy)-1-methyl-11H-pyrazolo[3,4-d]pyrimidin-6-yl)amino)bicyclo[1.1.1]pentane-1-carbonitrile] | 360 |
| Cc1cc(/C=C/C#N)cc(C)c1Oc1nc(NC23CC(C#N)(C2)C3)nc2c1[C@@]1(C)O[C@@H](C)CN1C2=O (single isomer, unassigned) [Example 249] | 75.7 |
| Cc1cc(/C=C/C#N)cc(C)c1Oc1nc(NC23CC(C#N)(C2)C3)nc2c1C(C)N(CCN1CCOCC1)C2=O (stereo not drawn) [Example 214, (E)-3-((4-(4-(2-cyanovinyl)-2,6-dimethylphenoxy)-5-methyl-6-(2-morpholinoethyl)-7-oxo-6,7-dihydro-5H-pyrrolo[3,4-d]pyrimidin-2-yl)amino)bicyclo[1.1.1]pentane-1-carbonitrile] | 59.1 |
| Cc1cc(/C=C/C#N)cc(C)c1Oc1nc(NC23CC(C#N)(C2)C3)nc2c1c(N)nn2C [Compound 125, 3-[[3-amino-4-[4-[(E)-2-cyanovinyl]-2,6-dimethyl-phenoxy]-1-methyl-pyrazolo[3,4-d]pyrimidin-6-yl]amino]bicyclo[1.1.1]pentane-1-carbonitrile] | 111 |
| Cc1cc(/C=C/C#N)cc(C)c1Oc1nc(NC23CC(C#N)(C2)C3)nc2c(=O)n(C)n(C(F)F)c12 [Compound 292, (E)-3-((7-(4-(2-cyanovinyl)-2,6-dimethylphenoxy)-1-(difluoromethyl)-2-methyl-3-oxo-2,3-dihydro-1H-pyrazolo[4,3-d]pyrimidin-5-yl)amino)bicyclo[1.1.1]pentane-1-carbonitrile] | 58.8 |
| Cc1cc(/C=C/C#N)cc(C)c1Oc1nc(NC23CC(C#N)(C2)C3)nc2c1C1(C)O[C@H](C)CN1C2=O (stereo partly drawn) [Compound 308, 3-(((6R)-4-(4-((E)-2-cyanovinyl)-2,6-dimethylphenoxy)-4b,6-dimethyl-9-oxo-4b,6,7,9-tetrahydrooxazolo[3′,2′:1,5]pyrrolo[3,4-d]pyrimidin-2-yl)amino)bicyclo[1.1.1]pentane-1-carbonitrile] | 60.1 |
| Cc1cc(/C=C/C#N)cc(C)c1Oc1nc(NC23CC(C#N)(C2)C3)nc2nc3n(c12)CCO3 [Compound 184, (E)-3-((4-(4-(2-cyanovinyl)-2,6-dimethylphenoxy)-6,7-dihydrooxazolo[2,3-f]purin-2-yl)amino)bicyclo[1.1.1]pentane-1-carbonitrile] | 36.5 |
| Cc1cc(/C=C/C#N)cc(C)c1Oc1nc(NC23CC(C#N)(C2)C3)nc2nc(Nc3ccccn3)[nH]c12 [Compound 68, (E)-3-((6-(4-(2-cyanovinyl)-2,6-dimethylphenoxy)-8-(pyridin-2-ylamino)-7H-purin-2-yl)amino)bicyclo[1.1.1]pentane-1-carbonitrile] | 273 |
| Cc1cc(/C=C/C#N)cc(C)c1Oc1nc(NC23CC(C#N)(C2)C3)nc2c1n(C(F)F)c(=O)n2C(F)F [Compound 28, (E)-3-((6-(4-(2-cyanovinyl)-2,6-dimethylphenoxy)-7,9-bis(difluoromethyl)-8-oxo-8,9-dihydro-7H-purin-2-yl)amino)bicyclo[1.1.1]pentane-1-carbonitrile] | 44 |
| Cc1cc(/C=C/C#N)cc(C)c1Oc1nc(NC23CC(C#N)(C2)C3)nc2nn3c(c12)OCCC3 [Compound 301, (E)-3-((4-(4-(2-cyanovinyl)-2,6-dimethylphenoxy)-7,8-dihydro-6H-pyrimido[4′,5′:3,4]pyrazolo[5,1-b][1,3]oxazin-2-yl)amino)bicyclo[1.1.1]pentane-1-carbonitrile] | 50.7 |
| Cc1cc([C@H]2C[C@@H]2C#N)cc(C)c1Oc1nc(NC23CC(C#N)(C2)C3)nc2nn(C)cc12 (racemic) [Compound 132, (rac)-3-((4-(4-((1S,2S)-2-cyanocyclopropyl)-2,6-dimethylphenoxy)-2-methyl-2H-pyrazolo[3,4-d]pyrimidin-6-yl)amino)bicyclo[1.1.1]pentane-1-carbonitrile] | 267 |
| Cc1cc(/C=C/C#N)cc(C)c1Oc1nc(NC23CC(C#N)(C2)C3)nc2c1C(C)N(C1CCC1)C2=O (stereo not drawn) [Example 216, (E)-3-((4-(4-(2-cyanovinyl)-2,6-dimethylphenoxy)-6-cyclobutyl-5-methyl-7-oxo-6,7-dihydro-5H-pyrrolo[3,4-d]pyrimidin-2-yl)amino)bicyclo[1.1.1]pentane-1-carbonitrile] | 77.8 |
| COC1NC(=O)c2nc(NC34CC(C#N)(C3)C4)nc(Oc3c(C)cc(/C=C/C#N)cc3C)c21 (stereo not drawn) [Compound 287, (E)-3-((4-(4-(2-cyanovinyl)-2,6-dimethylphenoxy)-5-methoxy-7-oxo-6,7-dihydro-5H-pyrrolo[3,4-d]pyrimidin-2-yl)amino)bicyclo[1.1.1]pentane-1-carbonitrile] | 26.2 |
| Cc1cc(/C=C/C#N)cc(C)c1Oc1nc(NC23CC(C#N)(C2)C3)nc2c1[C@@H]1OC[C@H](F)CN1C2=O (single isomer, unassigned) [Compound 282] | 50.1 |
| Cc1cc(/C=C/C#N)cc(C)c1Oc1nc(NC23CC(C#N)(C2)C3)nc2nc(C(F)F)n(C)c12 [Compound 25, (E)-3-((6-(4-(2-cyanovinyl)-2,6-dimethylphenoxy)-8-(difluoromethyl)-7-methyl-7H-purin-2-yl)amino)bicyclo[1.1.1]pentane-1-carbonitrile] | 37.2 |
| Cc1cc(/C=C/C#N)cc(C)c1Nc1nc(NC23CC(C#N)(C2)C3)nc2[nH]nc(C)c12 [Example 236, 3-[[4-[4-[(E)-2-cyanovinyl]-2,6-dimethyl-anilino]-3-methyl-11H-pyrazolo[3,4-d]pyrimidin-6-yl]amino]bicyclo[1.1.1]pentane-1-carbonitrile] | 217 |
| Cc1cc(/C=C/C#N)cc(C)c1Oc1nc(NC23CC(C#N)(C2)C3)nc2nc(C(F)F)[nH]c12 [Compound 26, (E)-3-((6-(4-(2-cyanovinyl)-2,6-dimethylphenoxy)-8-(difluoromethyl)-7H-purin-2-yl)amino)bicyclo[1.1.1]pentane-1-carbonitrile] | 347 |
| Cc1cc(/C=C/C#N)cc(C)c1Oc1nc(NC23CC(C#N)(C2)C3)nc2occ(C)c12 [Compound 300, (E)-3-((4-(4-(2-cyanovinyl)-2,6-dimethylphenoxy)-5-methylfuro[2,3-d]pyrimidin-2-yl)amino)bicyclo[1.1.1]pentane-1-carbonitrile] | 87.6 |
| Cc1cc(/C=C/C#N)cc(C)c1Oc1nc(NC23CC(C#N)(C2)C3)nc2c1C1(C)O[C@@H](C)CCN1C2=O (stereo partly drawn) [Example 241, 3-(((6S)-4-(4-((E)-2-cyanovinyl)-2,6-dimethylphenoxy)-4b,6-dimethyl-10-oxo-4b,7,8,10-tetrahydro-6H-pyrimido[5′,4′:3,4]pyrrolo[2,1-b][1,3]oxazin-2-yl)amino)bicyclo[1.1.1]pentane-1-carbonitrile] | 34.8 |
| Cc1cc(/C=C/C#N)cc(C)c1Oc1nc(NC23CC(C#N)(C2)C3)nc2c1C(C)(O)N(CC#N)C2=O (stereo not drawn) [Compound 316, (E)-3-((6-(cyanomethyl)-4-(4-(2-cyanovinyl)-2,6-dimethylphenoxy)-5-hydroxy-5-methyl-7-oxo-6,7-dihydro-5H-pyrrolo[3,4-d]pyrimidin-2-yl)amino)bicyclo[1.1.1]pentane-1-carbonitrile] | 77.5 |
| Cc1cc(/C=C/C#N)cc(C)c1Oc1nc(NC23CC(C#N)(C2)C3)nc2c1C(C)OC2 (stereo not drawn) [Example 263, (E)-3-((4-(4-(2-cyanovinyl)-2,6-dimethylphenoxy)-5-methyl-5,7-dihydrofuro[3,4-d]pyrimidin-2-yl)amino)bicyclo[1.1.1]pentane-1-carbonitrile] | 60.4 |
| CCOc1nc2nc(NC34CC(C#N)(C3)C4)nc(Oc3c(C)cc(/C=C/C#N)cc3C)c2n1C [Compound 298, (E)-3-((6-(4-(2-cyanovinyl)-2,6-dimethylphenoxy)-8-ethoxy-7-methyl-7H-purin-2-yl)amino)bicyclo[1.1.1]pentane-1-carbonitrile] | 87.3 |
